{"source": "paper PMC7695167", "about": "“Targeting the Interaction between the SH3 Domain of Grb2 and Gab2” (Cells, 2020)", "target": "T1, C-SH3 Grb2 (C-terminal SH3 domain of Grb2) (Homo sapiens, UniProt P62993)", "T1 construct": "isolated C-terminal SH3 domain, recombinant, expressed and purified as previously reported", "T1 sequence (P62993 159-217 limits assumed)": "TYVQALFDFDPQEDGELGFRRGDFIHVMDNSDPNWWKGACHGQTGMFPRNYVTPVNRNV", "assay": "tryptophan fluorescence, titration of preformed C-SH3:Gab2 peptide complex", "assay_type": "binding", "details": "read-out: apparent inhibition constant"}
{"smiles": "CCOc1cc(CNCCc2ccc(OC)cc2)ccc1OCc1cccc(Cl)c1", "note": "[AN-465-J137-985, N-(4-((3-Chlorobenzyl)oxy)-3-ethoxybenzyl)-2-(4-methoxyphenyl)ethan-1-amine]", "values": [{"measurement": "Ki", "result": "~5", "unit": "µM"}]}
